These results are taken from ChEMBL document CHEMBL5357036, “Latest developments in coumarin-based anticancer agents: mechanism of action and structure-activity relationship studies” (RSC Med Chem, 2024).

In brackets after ≈: the same amount, converted by molar mass.

Series [1] has as its system HepG2. The series can be described thus: Antiproliferative activity against human HepG2 cells assessed as reduction in cell viability incubated for 48 hrs by MTT assay. The format is functional, cell-based. The note with it: HepG2, 48 h. In general terms: Tetrazolium dyes change colour on reduction, which living cells bring about.
In series [2] the test system is HepG2. In words: Induction of apoptosis in human HepG2 cells assessed as increase in apoptotic cells at 10 uM by Annexin V-FITC staining based flow cytometry (reference value: 13.76 %). The format is functional. For orientation: Flow cytometry measures light scatter and fluorescence of single cells or particles in a stream.
Another series deals with MT4. In words: Cytotoxicity against human MT4 cells assessed as inhibition of cell growth incubated for 72 hrs by MTT assay. Format: functional.
For a further series, the system named is MDA-MB-231. In words: Cytotoxicity against human MDA-MB-231 cells assessed as inhibition of cell growth incubated for 72 hrs by MTT assay. Format: functional.
The subject of series [3] is MCF7. In words: Cytotoxicity against human MCF7 cells assessed as inhibition of cell growth incubated for 72 hrs by MTT assay. Format: functional.
Series [4] is described as follows: Cytotoxicity against rat H4-II-E cells assessed as reduction in cell viability measured after 24 hrs by MTT assay. Format: functional, cell-based. The settings on record: H4IIE.
Series [5] deals with HepG2. In words: Cytotoxicity against human HepG2 cells assessed as growth inhibition measured after 48 hrs by MTT assay. The format is functional, cell-based. The note with it: HepG2, 48 h.
For series [6], the system named is MCF7. In words: Anticancer activity against human MCF7 cells assessed as inhibition of cell proliferation measured after 72 hrs by MTT assay. The format is functional, cell-based. The settings on record: MCF7, 72 h.
The test system of another series is MHCC97. In words: Antiproliferative activity against human MHCC97 cells assessed as inhibition of cell growth measured after 3 days by CellTiter-Glo assay. Format: functional, cell-based. The settings on record: MHCC97, 72 h.
The next series relates to SMMC-7721. In words: Antiproliferative activity against human SMMC-7721 cells assessed as reduction in cell viability incubated for 48 hrs by MTT assay. Format: functional, cell-based. The settings on record: SMMC-7721, 48 h.
Another series deals with Hep 3B2. The series can be described thus: Antiproliferative activity against human Hep3B cells assessed as reduction in cell viability incubated for 48 hrs by MTT assay. Format: functional, cell-based.
The subject of a further series is Bel-7402. In words: Antiproliferative activity against human Bel-7402 cells assessed as reduction in cell viability incubated for 48 hrs by MTT assay. The format is functional, cell-based. The note with it: Bel-7402, 48 h.
Series [7] relates to HepG2. The series can be described thus: Cytotoxicity against human HepG2 cells assessed as reduction in cell viability measured after 24 hrs by MTT assay. The format is functional, cell-based. The settings on record: HepG2, 24 h.
Series [8] is described as follows: Cytotoxicity against mouse DLA cell assessed as reduction in cell viability by LDH leak assay. Format: functional, cell-based.
The subject of a further series is Ehrlich. The series can be described thus: Cytotoxicity against mouse EAC cell assessed as reduction in cell viability by MTT assay. The format is functional, cell-based.
Series [9] is described as follows: Cytotoxicity against mouse DLA cell assessed as reduction in cell viability by trypan blue assay. Format: functional, cell-based.
Another series deals with HCT-116. In words: Antiproliferative activity against human HCT-116 cells assessed as reduction in cell viability incubated for 72 hrs by MTT assay. The format is functional, cell-based. The note with it: HCT-116, 72 h.
In series [10] the test system is HepG2. In words: Antiproliferative activity against human HepG2 cells assessed as reduction in cell viability measured after 48 hrs by MTT assay. Format: functional, cell-based. The note with it: HepG2, 48 h.
For series [11], the system named is MCF7. In words: Antiproliferative activity against human MCF7 cells assessed as reduction in cell viability measured after 48 hrs by MTT assay. The format is functional, cell-based. The note with it: MCF7, 48 h.
For series [12], the system named is MCF7. The series can be described thus: Anticancer activity against human MCF7 cells assessed as inhibition of cell growth incubated for 48 hrs by MTT assay. The format is functional, cell-based. The settings on record: MCF7, 48 h.
The test system of a further series is A-375. In words: Anticancer activity against human A-375 cells assessed as inhibition of cell growth incubated for 48 hrs by MTT assay. The format is functional, cell-based. The note with it: A-375, 48 h.
The test system of series [13] is A549. The series can be described thus: Anticancer activity against human A549 cells assessed as inhibition of cell growth incubated for 48 hrs by MTT assay. The settings on record: A549, 48 h. Format: functional, cell-based.
For the next series, the system named is C6. The series can be described thus: Antiproliferative activity against rat C6 cells assessed as inhibition of cell growth. Format: functional, cell-based.
For a further series, the system named is A549 (Homo sapiens). The series can be described thus: Antiproliferative activity against human A549 cells assessed as cell growth inhibition incubated for 48 hrs by MTT assay. The settings on record: A549, 48 h.
For series [14], the system named is HepG2. The series can be described thus: Antiproliferative activity against human HepG2 cells assessed as cell growth inhibition incubated for 48 hrs by MTT assay. The format is functional, cell-based.
The test system of the next series is SGC-7901. The series can be described thus: Antiproliferative activity against human SGC-7901 cells assessed as cell growth inhibition. Format: functional, cell-based.
Series [15] can be described thus: Oral bioavailability in Sprague-Dawley rat at 10 mg/kg measured up to 24 hrs by LC-MS/MS analysis. Format: ADME, organism-based. The settings on record: in vivo.
A further series has as its system PANC-1. In words: Antiproliferative activity against human PANC-1 cells assessed as cell growth inhibition incubated for 48 hrs by MTT assay. Format: functional, cell-based. The note with it: PANC-1, 48 h.
The subject of the next series is MGC-803. The series can be described thus: Cytotoxicity against human MGC-803 cells assessed as cell growth inhibition incubated for 24 hrs by MTT assay. The format is functional, cell-based. The note with it: MGC-803, 24 h.
The test system of the next series is NCI-H460. The series can be described thus: Cytotoxicity against human NCI-H460 cells assessed as cell growth inhibition incubated for 24 hrs by MTT assay. The settings on record: NCI-H460, 24 h. The format is functional, cell-based.
The subject of series [16] is A549. In words: Cytotoxicity against human A549 cells assessed as cell growth inhibition incubated for 24 hrs by MTT assay. Format: functional, cell-based. The note with it: A549, 24 h.

As to `C/C(=N\Nc1nc(-c2ccccc2)cs1)c1ccc(NS(=O)(=O)c2ccc3oc(=O)ccc3c2)cc1`, in the series with HepG2 [1], the IC50 (commonly the concentration needed to halve the response being measured) is 3.48 µM. Moreover, in the series with HepG2 [2], the Activity was 1.75%.

Regarding `CC(=O)c1cc2cc(Nc3c(C)cc(C)c(-c4cc5ccccc5nc4F)c3C)c(=O)oc2cc1O`, the GI50 – broadly, the concentration at which growth is held to half of that of the control – was determined as 12.6 µM in the series with MT4, 11.8 µM with MDA-MB-231 and 10.5 µM in the series on MCF7 [3].

For the molecule `O=C(Nc1ccc(/C=C/C(=O)c2cc3ccccc3oc2=O)cc1)Nc1ccc(C(F)(F)F)cc1`, the IC50 in series [4] came to 1.62 µM.

On to `CCCCOc1ccc2cc(C(=O)NNC(=O)c3c(C)oc4nc(N(CCC)CCC)n(-c5ccc(C)cc5)c(=O)c34)c(=O)oc2c1`, for which, in the series with HepG2 [5], the IC50 was found to be 4.87 µM.

As for `O=C(O)COc1ccc2ccccc2c1/C=C/C(=O)c1cc2c(ccc3ccccc32)oc1=O`, the IC50 with MCF7 [6] is 15.4 µM.

As for `O=c1oc2ccccc2c(O)c1C(c1cccc(Oc2ccccc2)c1)c1c(O)c2ccccc2oc1=O`, the IC50 is 7 µM in the series with MHCC97, 6 µM in the series with SMMC-7721, 9 µM in the series on Hep 3B2 and 8 µM with Bel-7402.

Consider `O=C(Nc1ccc(/C=C/C(=O)c2cc3ccccc3oc2=O)cc1)Nc1ccc([N+](=O)[O-])cc1`, for which, in the series with HepG2 [7], the IC50 was 2.33 µM.

`COc1ccc(-c2csc(NC(=O)c3cc4ccc(OC)cc4oc3=O)n2)cc1`: the IC50 in series [8] is 14.2 µM; in the series with Ehrlich it was 15.3 µM; in [9] it was 15.6 µM.

Take `CCN(CC)c1ccc2cc(C(=O)/C=C/c3ccc(OC)c(O)c3)c(=O)oc2c1`: the IC50 in the series with HCT-116 is 3.6 µM.

As for `N#Cc1c(NN)nc(SCc2cc(=O)oc3ccccc23)nc1-c1ccccc1`, the IC50 in the series with HepG2 [10] was determined as 5.5 µM; in the series with MCF7 [11] it was 6.9 µg/mL (≈ 17.2 µM).

`Cc1ccc(NCc2cc(=O)oc3ccc4ccccc4c23)cc1`: the IC50 was found to be 5.17 µM in the series on MCF7 [12], 9.02 µM with A-375 and 4.29 µM with A549 [13].

Consider `Cc1cn(Cc2cc(=O)oc3ccc(Cl)cc23)c(=O)n(Cc2cc(=O)oc3ccc(Cl)cc23)c1=O`, for which the IC50 in the series with C6 stood at 4.85 µM.

With `COc1cc(Cl)ccc1S(=O)(=O)Nc1ccc2oc(=O)ccc2c1`, the IC50 with A549 (Homo sapiens) worked out at 4.63 µM; in the series on HepG2 [14], 4.75 µM; in the series on SGC-7901, 6.39 µM; in the series on PANC-1 it was 7.02 µM. The bioavailability (in general, the share of a dose that reaches the circulation, judged against a reference dose that is usually intravenous) in series [15] came out at 49.4%.

Take `O=c1oc2ccccc2cc1NCc1ccc(Br)cc1`: the half-maximal inhibitory concentration (IC50) in the series with MGC-803 is 10.2 µM; with NCI-H460, 9.25 µM; with A549 [16], 8.75 µM.
